Assays:
E. faecalis biofilm [1] = assay: Antibacterial efficacy on 7-days old biofilm (CFU count); type: cell-based, E. faecalis (ATCC 29212)
Protocol: In order to test the antibacterial-efficacy of nanoparticulates on bacterial-biofilm, 7-days old biofilm of E. faecalis (ATCC 29212) was grown in well of multiwell-plates as mentioned above. On the eighth day, the media was removed from the wells, and the biofilm was carefully washed once with sterile deionized-water. The biofilm-bacteria was treated with chitosan polymer-Rose Bengal nanoparticles and Rose Bengal and exposed to photodynamic therapy with different doses. Sensitization was done using 1 mL of Rose Bengal (10 μM) and chitosan polymer-Rose Bengal nanoparticles (0.1 & 0.3 mg/mL) at 37° C. for 15 min, protected from ambient light. Subsequently, the excess photosensitizer solutions were removed leaving behind the bound chitosan polymer-Rose Bengal nanoparticles and Rose Bengal. Dark toxicity was evaluated after sensitization period with the two treatment solutions. In case of photodynamic therapy, the sensitized biofilm-bacteria were irradiated using a 540 nm fiber with dosage of 20, 40 and 60 J/cm^2; and fractionated dosage of 10 and 20 J/cm^2 twice. After treatment, the biofilms were washed gently and 1 mL of sterile deionized-water was added. […] Colonies were counted after 24 hours of incubation at 37° C. and expressed as log colony forming units (CFU) per mL. The experiments were carried out in triplicates and the mean values were calculated.

[2] = system: NIH 3T3 mouse fibroblast cells; assay: Cytotoxicity, MTT assay with and without photodynamic therapy; type: cell-based
Protocol: To evaluate cytotoxicity approximately 1×10^5 NIH 3T3 mouse fibroblast cells (American Type Culture Collection CCL 1, Rockville, Md.) were seeded into 24 well plates in Dulbecco's Modified Eagle medium (DMEM) supplemented with 10% Bovine Serum and antibiotics and incubated for 48 hrs in 5% CO2 incubator (Thermo Electron Corporation, USA). After incubation, chitosan polymer-Rose Bengal nanoparticles and Rose Bengal dissolved in DMEM were added into the cells and incubated for 15 min in dark. The cells were irradiated with a white light source and a 540 nm fiber (Lumacare Inc) for a total dose of 20 J/cm^2. Rose Bengal and chitosan polymer-Rose Bengal nanoparticles were also tested without irradiation. […]
The supernatant media was removed without disturbing the cell line, and the cell layer was washed with 1 mL of phosphate-buffered saline. Cell survival was determined by the standard 3-(4, 5-dimethylthiazol-2-yl)-2, 5-diphenyltetrazolium bromide (MTT) assay (Sigma Aldrich) that determines the mitochondrial activity. […] The absorbance at 540 nm was measured photometrically by using a UV-visible spectrophotometer (Epoch, Biotek, USA). Percentage survival was calculated based on control sample without any treatment as 100%. All analyses were repeated three times in triplicate, and the statistical significance was analyzed by one-way analysis of variance.

planktonic E. faecalis [3] = assay: Membrane integrity of planktonic bacteria (release of cell constituents, OD260); type: cell-based, E. faecalis (ATCC 29212); conditions: following photodynamic therapy, 5 J/cm^2, 540 nm
Protocol: Leakage of cytoplasmic contents (DNA) is a characteristic indication of damage to the bacterial cytoplasmic membrane. Absorbance at 260 nm was used to estimate the amount of intracellular contents leaked from bacteria subjected to different photosensitizers and photodynamic therapy. E. faecalis (ATCC 29212) was incubated overnight at 37° C. under agitation in the Brain-Heart Infusion (BHI) medium (Sigma, USA). The culture was centrifuged (4000 rpm, 10 min, 4° C.), supernatants discarded and washed twice in sterile deionized water (DIW). The cells were resuspended in deionized water and adjusted to 10^7 CFU/mL (optical density 0.7) at 600 nm. The cell suspension (1 mL) was then added into eppendorf tubes and centrifuged. The supernatants were discarded and the cell pellets were treated with different photosensitizer solutions and maintained at 37° C. for 15 min, protected from ambient light. The kinetics of release of intracellular contents, treated bacterial cells were filtered (0.2 μm pore size, Pall) and absorbance of the filtrate recorded at 260 nm (OD260). For photodynamic therapy, the photosensitized cells were centrifuged and cell pellets irradiated (5 J/cm^2, 540 nm). The % change in OD260 at 15 min post sensitization and after irradiation with 5 J/cm^2 was calculated with respect to the OD260 of the sample measured at 0 min.

E. faecalis biofilm [4] = assay: Biofilm structure by confocal laser scanning microscopy; type: cell-based, E. faecalis (ATCC 29212)
Protocol: The structure of the 7-days old biofilm following treatment with nanoparticulates was assessed using confocal-laser-scanning-microscopy (CLSM). E. faecalis (ATCC 29212) biofilm was grown on a glass bottom culture dishes. Following treatment with Rose Bengal (10 μM) and chitosan polymer-Rose Bengal nanoparticles (0.3 mg/mL) the as mentioned above, biofilms were washed with 1 mL of sterile deionized-water. The biofilms were then stained with 200 μL, of Live/Dead® Baclight™ stain (Molecular Probes, Eugene, Oreg.) and incubated in the dark for 10 minutes. The biofilm-structures were then viewed under spinning disk confocal-laser-scanning microscopy (Olympus, Japan). Kr/Ar laser was the source of illumination with 488 nm excitation and long-pass 500-523 nm and 622-722 nm emission filter settings for green and red signals respectively. Nine different areas were imaged from each sample using a 60× oil objective. The optical sections of the biofilm-structure were first recorded then subsequently analyzed using Velocity® software. Student t-test was used to compare the thickness of the biofilm before and after nanoparticulates treatment.

planktonic E. faecalis [5] = assay: Antibacterial efficacy on planktonic bacteria (CFU count); type: cell-based, E. faecalis (ATCC 29212); conditions: 540 nm, 15 min sensitization
Protocol: E. faecalis (ATCC 29212) was used to test the antibacterial efficacy of Rose Bengal and chitosan polymer-Rose Bengal nanoparticles in both planktonic and biofilm forms. Planktonic cell pellets (10^9 cells/mL) were obtained and the cell pellets treated with 1 mL of Rose Bengal (10 μM) and chitosan polymer-Rose Bengal nanoparticles (0.1 & 0.3 mg/mL), at 37° C. for 15 min, in the manner previously described and protected from ambient light to allow sensitization. Dark toxicity was evaluated after 15 min of sensitization with the two treatment solutions. In the case of photodynamic therapy, the photosensitizer solutions were removed leaving a thin smear at the bottom of the eppendorf tubes. The sensitized planktonic-bacteria were irradiated using a 540 nm fiber with doses of 2 and 5 J/cm^2. After treatment, cell pellets were resuspended in sterile deionized-water (1 mL) and 100 μL of the suspension was plated in freshly poured BHI agar plates after serial dilution. Colonies were counted after 24 hours of incubation at 37° C. and expressed as log colony forming units (CFU) per mL.

E. faecalis biofilm [6] = assay: Uptake of photosensitizers by E. faecalis biofilm; type: cell-based, E. faecalis (ATCC 29212); conditions: 15 min incubation, 7 day old biofilm
Protocol: The uptake of Rose Bengal, methylene blue and chitosan polymer-Rose Bengal nanoparticles was evaluated on biofilm forms of E. faecalis. A seven day old biofilm of E. faecalis (ATCC 29212) was grown in 24 multi-well plates. 1 mL of overnight E. faecalis culture was added into each well of the multi-well plates and incubated at 37° C., 100 rpm. Fresh media was replenished every 48 hours to provide a constant supply of nutrients and to remove dead bacterial cells. On the eighth day, the media was removed from the wells, and the biofilm was carefully washed once with sterile deionized-water. Different concentrations of chitosan polymer-Rose Bengal nanoparticles (0.3, 0.5 & 1 mg/mL) and MB and Rose Bengal (10, 25, 50 & […]) were added to the biofilm and incubated at 37° C. for 15 min, protected from ambient light. Three samples were used for each concentration. Excess photosensitizer solutions were removed leaving behind the bound Rose Bengal, MB and chitosan polymer-Rose Bengal nanoparticles in biofilm and washed once. The biofilm bacteria were treated with 1 mL of 2% SDS for 20 h in order to extract the cell-bound photosensitizers. The biofilms were disrupted and collected in eppendorf tubes. The biofilm bacteria were centrifuged (3000 rpm, 10 min) and the supernatant solution was taken for photosensitizer quantification. Quantification of photosensitizer was done spectrophotometrically (Epoch, Biotek, USA) at the absorption maxima of the Rose Bengal (540 nm). Calibration curves were constructed for each Rose Bengal in 2% SDS. Uptake values were obtained as the total Rose Bengal and MB concentrations (μM) extracted from both the 1 mL of planktonic and biofilm bacteria.

Row | Compound | elimination of biofilm bacteria (E. faecalis biofilm [1]; fractionated photodynamic therapy, CSRBnp 0.3 mg/mL, Rose Bengal 10 μM) | killing of biofilm-bacteria (E. faecalis biofilm [1]; photodynamic therapy at 60 J/cm^2) | cell survival after photodynamic therapy ([2]; NIH 3T3, 540 nm, 20 J/cm^2) | dark toxicity ([2]; NIH 3T3, 15 min exposure, no irradiation) | release of cell constituents (absorbance at 260 nm) (planktonic E. faecalis [3]) | biofilm architecture (E. faecalis biofilm [4]; after PD treatment (irradiation)) | thickness of the biofilm (E. faecalis biofilm [4]; after PD treatment, Rose Bengal 10 μM, CSRBnp 0.3 mg/mL, untreated 39.2±7.3) [µm] | light dose giving complete planktonic bacterial killing (planktonic E. faecalis [5]) [J/cm^2] | Biofilm E. faecalis photosensitizer uptake/mL of cells (E. faecalis biofilm [6]; photosensitizer 10 μM) [µM] | Biofilm E. faecalis photosensitizer uptake/mL of cells (E. faecalis biofilm [6]; photosensitizer 25 μM) [µM] | Biofilm E. faecalis photosensitizer uptake/mL of cells (E. faecalis biofilm [6]; photosensitizer 50 μM) [µM] | Biofilm E. faecalis photosensitizer uptake/mL of cells (E. faecalis biofilm [6]; photosensitizer 100 μM) [µM]
1 | O=C1OC2(c3cc(I)c(O)c(I)c3Oc3c2cc(I)c(O)c3I)c2c(Cl)c(Cl)c(Cl)c(Cl)c21 [RB, Rose Bengal] | not with Rose Bengal | did not show complete killing | further reduction of cell survival | higher dark toxicity | increased absorbance at 260 nm | not disrupted | 21.5 ± 9.57 | 5 | 2.72 ± 0.15 | 2.80 ± 0.09 | 3.01 ± 0.11 | 3.68 ± 0.17
2 | CN(C)c1ccc2nc3ccc(=[N+](C)C)cc-3sc2c1 [MB, methylene blue] | – | – | – | – | – | – | – | – | 0.96 ± 0.07 | 1.75 ± 0.21 | 3.15 ± 0.16 | 5.07 ± 0.19

Source: US11737955B2, “Multi-functional micro and nanoparticles for use in root canal therapies” (THE GOVERNING COUNCIL OF THE UNIVERSITY OF TORONTO, priority 2012, dated 2023)
